Experimental data as given in patent US8278452B2, “Heterocyclic compounds and compositions as c-kit and PDGFR kinase inhibitors” (IRM LLC, priority 2008, dated 2012).

Key:
Human TG/HA-VSMC cells = test: Human TG/HA-VSMC proliferation assay (PDGF-BB, CellTiter-Glo); assay type: cell-based; conditions: Biological data table, PDGF-BB stimulated
Procedure: Human TG/HA-VSMC Proliferation Assay
Human TG/HA-VSMC cells (ATCC) were resuspended in DMEM supplemented with 1% FBS and 30 ng/mL recombinant human PDGF-BB at 60,000 cells/mL. The cells were aliquoted into 384 well plates at 50 μL/well and incubated for 4 hours at 37° C. in a humidified incubator in the presence of 5% carbon dioxide. 0.5 μL of test compound diluted in DMSO was added to each well. The plates were returned to the incubator for a further 68 hours. 25 μL of CellTiter-Glo (Promega) was added to each well and the plates were incubated on the bench for 15 minutes. Luminescence was then read using a CLIPR CCD camera (Molecular Devices).

[1] = system: Mo7e cells which endogenously express c-kit; test: Mo7e assay: inhibition of SCF dependent proliferation (MTT); assay type: cell-based
Method in brief: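 Mo7e cells stimulated with human recombinant SCF and exposed to two-fold serial compound dilutions from a top concentration of 10 μM. After 48 h at 37 °C, viability measured by MTT colorimetric assay; IC50 derived.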

[2] = Mo7e, Biological data table (selectivity c-kit over PDGFR)
[3] = Table 1, SCF stimulated Mo7e cells, 48 hours, MTT

| SMILES | IC50 (Human TG/HA-VSMC cells) [nM] | IC50 [1, 2] [nM] | IC50 [1, 3] [nM] |
| --- | --- | --- | --- |
| COc1ccc(-c2nc(Nc3ccc(C)c(-c4cc5cnc(C)cc5n(C)c4=O)c3)no2)cc1 [Compound A14, 3-(5-{[5-(4-methoxyphenyl)-1,2,4-oxadiazol-3-yl]amino}-2-methylphenyl)-1,7-dimethyl-1,2-dihydro-1,6-naphthyridin-2-one] | 1820 | 14 | 14 |
| Cc1cc2c(cn1)cc(-c1cc(Nc3nc(-c4ccccn4)no3)ccc1C)c(=O)n2C [Compound E2, 1,7-dimethyl-3-(2-methyl-5-(3-(pyridin-2-yl)-1,2,4-oxadiazol-5-ylamino)phenyl)-1,6-naphthyridin-2(1H)-one] | 2360 | 256 | 256 |
| Cc1cc2c(cn1)cc(-c1cc(Nc3noc(C4CC4)n3)ccc1C)c(=O)n2C [Compound A3, 3-(5-(5-cyclopropyl-1,2,4-oxadiazol-3-ylamino)-2-methylphenyl)-1,7-dimethyl-1,6-naphthyridin-2(1H)-one] | 506 | 16 | 16 |
| Cc1ccc(-c2nnc(Nc3ccc(C)c(-c4cc5cnc(C)cc5n(C)c4=O)c3)o2)cc1 [Compound B1, 1,7-dimethyl-3-(2-methyl-5-{[5-(4-methylphenyl)-1,3,4-oxadiazol-2-yl]amino}phenyl)-1,2-dihydro-1,6-naphthyridin-2-one] | 2260 | 76 | 76 |
| Cc1cc2c(cn1)cc(-c1cc(Nc3cc(-c4nccs4)no3)ccc1C)c(=O)n2C [Compound F1, 1,7-dimethyl-3-(2-methyl-5-(3-(thiazol-2-yl)isoxazol-5-ylamino)phenyl)-1,6-naphthyridin-2(1H)-one] | 2140 | 111 | 111 |
| Cc1cc2c(cn1)cc(-c1cc(Nc3cc(-c4nccs4)on3)ccc1C)c(=O)n2C [Compound D9, 1,7-dimethyl-3-(2-methyl-5-(5-(thiazol-2-yl)isoxazol-3-ylamino)phenyl)-1,6-naphthyridin-2(1H)-one] | 1070 | 141 | 141 |
| Cc1cc2c(cn1)cc(-c1cc(Nc3nnc(-c4ccccc4)[nH]3)ccc1C)c(=O)n2C [Compound C6, 1,7-dimethyl-3-(2-methyl-5-(5-phenyl-4H-1,2,4-triazol-3-ylamino)phenyl)-1,6-naphthyridin-2(1H)-one] | 3390 | 335 | 335 |
| Cc1cc2c(cn1)cc(-c1cc(Nc3noc(C4(C)COC4)n3)ccc1C)c(=O)n2C [Compound A65, 1,7-dimethyl-3-(2-methyl-5-{[5-(3-methyloxetan-3-yl)-1,2,4-oxadiazol-3-yl]amino}phenyl)-1,2-dihydro-1,6-naphthyridin-2-one] | – | – | 413 |
| COc1cc(C)ccc1-c1nc(Nc2ccc(C)c(-c3cc4cnc(C)cc4n(C)c3=O)c2)no1 [Compound A80, 3-(5-{[5-(2-methoxy-4-methylphenyl)-1,2,4-oxadiazol-3-yl]amino}-2-methylphenyl)-1,7-dimethyl-1,2-dihydro-1,6-naphthyridin-2-one] | – | – | 338 |
| Cc1cc2c(cn1)cc(-c1cc(Nc3nnc(-c4ccccc4)o3)ccc1C)c(=O)n2C [Compound B4, 1,7-dimethyl-3-(2-methyl-5-(5-phenyl-1,3,4-oxadiazol-2-ylamino)phenyl)-1,6-naphthyridin-2(1H)-one] | – | – | 105 |
| Cc1cc2c(cn1)cc(-c1cc(Nc3noc(C4CC(=O)C4)n3)ccc1C)c(=O)n2C [Compound A72, 1,7-dimethyl-3-(2-methyl-5-{[5-(3-oxocyclobutyl)-1,2,4-oxadiazol-3-yl]amino}phenyl)-1,2-dihydro-1,6-naphthyridin-2-one] | – | – | 204 |
| Cc1cc2c(cn1)cc(-c1cc(Nc3nc(-c4ccccc4)no3)ccc1C)c(=O)n2C [Compound E1, 1,7-dimethyl-3-{2-methyl-5-[(3-phenyl-1,2,4-oxadiazol-5-yl)amino]phenyl}-1,2-dihydro-1,6-naphthyridin-2-one] | – | – | 423 |
| Cc1cc2c(cn1)cc(-c1cc(Nc3noc(C(C)(C)CO)n3)ccc1C)c(=O)n2C [Compound A35, 3-(5-(5-(1-hydroxy-2-methylpropan-2-yl)-1,2,4-oxadiazol-3-ylamino)-2-methylphenyl)-1,7-dimethyl-1,6-naphthyridin-2(1H)-one] | – | – | 181 |
| Cc1ccc(-c2nc(Nc3ccc(C)c(-c4cc5cnc(C)cc5n(C)c4=O)c3)no2)cc1 [Compound A13, 1,7-dimethyl-3-(2-methyl-5-{[5-(4-methylphenyl)-1,2,4-oxadiazol-3-yl]amino}phenyl)-1,2-dihydro-1,6-naphthyridin-2-one] | – | – | 13 |
| Cc1cc2c(cn1)cc(-c1cc(Nc3noc(-c4ccc(F)cn4)n3)ccc1C)c(=O)n2C [Compound A25, 3-(5-{[5-(5-fluoropyridin-2-yl)-1,2,4-oxadiazol-3-yl]amino}-2-methylphenyl)-1,7-dimethyl-1,2-dihydro-1,6-naphthyridin-2-one] | – | – | 82 |
| Cc1cc2c(cn1)cc(-c1cc(Nc3nnc(CC(C)C)o3)ccc1C)c(=O)n2C [Compound B5, 3-(5-(5-isobutyl-1,3,4-oxadiazol-2-ylamino)-2-methylphenyl)-1,7-dimethyl-1,6-naphthyridin-2(1H)-one] | – | – | 108 |
| Cc1cc2c(cn1)cc(-c1cc(Nc3cc(-c4ccc(F)cc4Cl)on3)ccc1C)c(=O)n2C [Compound D8] | – | – | 361 |
| CC(=NO)c1cc(Nc2ccc(C)c(-c3cc4cnc(C)cc4n(C)c3=O)c2)no1 [Compound D13] | – | – | 476 |
| Cc1cc2c(cn1)cc(-c1cc(Nc3cc(-c4ccccc4)on3)ccc1C)c(=O)n2C [Compound D1, 1,7-dimethyl-3-(2-methyl-5-(5-phenylisoxazol-3-ylamino)phenyl)-1,6-naphthyridin-2(1H)-one] | – | – | 68 |
